Results on one compound are retold here after patent publication US11040958B2, “Triazole antimicrobial derivative, pharmaceutical composition and use thereof” (priority 2017, dated 2021).

Data set [1] can be described thus: In vitro metabolic stability in human plasma. The format is in vitro ADME. Particulars: human, plasma; 37°C, compound 10 μM; read-out: Human plasma T1/2. On the procedure:
The two reaction systems were set up three samples in parallel, while each sample was taken in an amount of 100 μL at 1 min, 2 mins, 5 mins, 15 mins, and 30 mins after the reaction, added to the centrifuge tube containing 400 μL of 0° C. pre-cooled internal standard working fluid and terminated the reaction. The sample was mixed by vortex for 1 min, centrifuged at 10,000×g for 10 mins in a 4° C. pre-cooled high-speed centrifuge. The supernatant was taken for HPLC detection.

The nature of data set [2]: In vitro metabolic stability in human intestinal S9. Type of data set: in vitro ADME. Particulars: human, intestinal S9; 37°C, S9 1 mg/mL, compound 10 μM, NADPH regeneration system; read-out: Human intestinal S9 T1/2.
Data set [3] can be described thus: In vitro metabolic stability in rat intestinal S9. Type of data set: in vitro ADME. Conditions: rat, intestinal S9, pH 7.4; 37°C, S9 1 mg/mL, compound 10 μM, NADPH regeneration system; read-out: Rat intestinal S9 T1/2.
Data set [4] is described as follows: Pharmacokinetics after single intravenous administration in rats (plasma voriconazole). Conditions: both, SD, rat, in vivo, iv, 2.5 mg/kg. In short, it runs like this: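 SD rats (180–220 g, 3 male/3 female per group) given single tail-vein dose of 2.5 mg/kg (as voriconazole). Plasma voriconazole measured in blood sampled at multiple time points post-dose.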
Data set [5] has as its system Candida albicans ATCC10231. Nature of the data set: Systemic fungal infection in mice, intravenous administration, survival. The format is in vivo. Particulars: ICR mice, tail vein, 5 mg/kg (calculated as voriconazole) once daily for 5 days. In short, it runs like this:
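Male ICR mice (18-22 g) infected via tail vein with C. albicans ATCC10231 at 5*10^6 cells/ml, 0.1 ml/10 g; groups of 10. From 2 h post-infection, 5 mg/kg (as voriconazole) given i.v. once daily for 5 days, saline vehicle (voriconazole in sulfobutyl ether-β-cyclodextrin); survival time recorded over 7 days.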

The subject of data set [6] is Candida albicans ATCC10231. Nature of the data set: Systemic fungal infection in mice, administration by gavage, survival. The format is in vivo. Particulars: ICR mice, 5 mg/kg (calculated as voriconazole) once daily for 5 days. In short, it runs like this: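 Male ICR mice (18-22 g) infected via tail vein with C. albicans ATCC10231 at 5*10^6/ml, 0.1 ml/10 g. Starting 2 h post-infection, 5 mg/kg (as voriconazole) given by gavage once daily for 5 days; saline for model group. Groups of 10; survival time recorded over 7 days.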

Regarding `CC(OC(=O)SCCO)[n+]1cnn(C[C@](O)(c2ccc(F)cc2F)[C@@H](C)c2ncncc2F)c1` (stereo partly drawn) [Compound 16037], the values for the half-life at 10 µM in data set [1], in data set [2] and in data set [3] were 7.75 ± 0.56 min, 10.8 ± 1.97 min and 16 ± 6.88 min, respectively. The compound also had an AUClast in data set [4] of 9120 ± 3254 ng·h/mL. In data set [4], this compound showed a T1/2 of 148 ± 45 min. Further, the “survival rate of mice, day 1” value in data set [5] (day 1) and in data set [6] (day 1) was 100% each time. Moreover, the “survival rate of mice, day 2” value in data set [5] (day 2) and in data set [6] (day 2) was 100% in each case. Also, the “survival rate of mice, day 3” value is recorded as 90% in data set [5] (day 3) and 100% in data set [6] (day 3). Besides, the “survival rate of mice, day 4” value in data set [5] (day 4) is 90%; in data set [6] (day 4), 100%. For the same compound, the “survival rate of mice, day 5” value in data set [5] (day 5) and in data set [6] (day 5) was 90% throughout. Further, the “survival rate of mice, day 6” value in data set [5] (day 6) and in data set [6] (day 6) was 80% throughout. In data set [6] (day 7), the “survival rate of mice, day 7” value was 80%.
